Experimental findings from article PMC5794925, “Expression and specificity of a chitin deacetylase from the nematophagous fungus Pochonia chlamydosporia potentially involved in pathogenicity” (Scientific Reports, 2018) are described below.

In the test the target is T1, PcCDA catalytic domain (Pochonia chlamydosporia, UniProt A0A179FW77).
T1 construct: gene VFPPC_13269
T1 sequence (A0A179FW77 94-309): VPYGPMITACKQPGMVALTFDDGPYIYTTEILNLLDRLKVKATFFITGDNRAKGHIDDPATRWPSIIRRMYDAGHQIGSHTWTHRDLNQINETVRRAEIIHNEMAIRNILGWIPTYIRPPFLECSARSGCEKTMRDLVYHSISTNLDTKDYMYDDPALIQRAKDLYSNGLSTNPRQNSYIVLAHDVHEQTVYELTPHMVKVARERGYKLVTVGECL
As to the kind of experiment: HPLC-MS of deacetylated products. Particulars: 0.2 mM substrate, 3.2 nM enzyme, 50 mM K2HPO4, 300 mM NaCl, pH 8.0, 37 °C; refolded with Zn2+. Format: biochemical.

Take `CC(=O)N[C@H]1[C@H](O[C@H]2[C@H](O)[C@@H](NC(C)=O)C(O)O[C@@H]2CO)O[C@H](CO)[C@@H](O[C@@H]2O[C@H](CO)[C@@H](O[C@@H]3O[C@H](CO)[C@@H](O)[C@H](O)[C@H]3NC(C)=O)[C@H](O)[C@H]2NC(C)=O)[C@@H]1O` (stereo partly shown) [A4, GlcNAc4]: the “HPLC-MS of deacetylated products” value is on record as “With the A4 substrate, the enzyme was also active but slower than with the A5”.
